The values below are quoted from earlier work in US10533225B2, “Methods and systems for monitoring, diagnosing, and treating chronic obstructive pulmonary disease” (Trustees of Boston University, priority 2012, dated 2020).

Series [1] concerns ER stress markers and airspace. Particulars: mice, administration.
Series [2] deals with PI3K pathway activation. Particulars: smokers with airway epithelial cell dysplasia.

The structures appear in SMILES notation.

As for `C=CC=O` [acrolein], in series [1], the ER stress markers result was “increase in ER stress markers” and the airspace change result was “airspace enlargement”.

As to `O[C@H]1[C@H](O)[C@@H](O)[C@H](O)[C@@H](O)[C@H]1O` [myo-inositol], in series [2], the “airway PI3K pathway activation” value is “reversible”.
